Results from patent publication US20090069373A1, “Quinoline Acids” (Wyeth, priority 2007, published 2009).

What was measured:
human LXRβ = biological target: T1, human LXRβ (Homo sapiens, UniProt P55055); assay: Ligand-binding test procedure for human LXRβ (3H T0901317 competition, flash plates); settings: for Binding ratio a/b: IC50 (μM) LXRα binding/IC50 (μM) LXRβ binding; for IC50: biotinylated hLXRβ, tracer 3H T0901317
T1 construct: biotin (biotinylated; biotinylation tag not described); made in house; host or cells: E. coli
T1 sequence (P55055 1-460): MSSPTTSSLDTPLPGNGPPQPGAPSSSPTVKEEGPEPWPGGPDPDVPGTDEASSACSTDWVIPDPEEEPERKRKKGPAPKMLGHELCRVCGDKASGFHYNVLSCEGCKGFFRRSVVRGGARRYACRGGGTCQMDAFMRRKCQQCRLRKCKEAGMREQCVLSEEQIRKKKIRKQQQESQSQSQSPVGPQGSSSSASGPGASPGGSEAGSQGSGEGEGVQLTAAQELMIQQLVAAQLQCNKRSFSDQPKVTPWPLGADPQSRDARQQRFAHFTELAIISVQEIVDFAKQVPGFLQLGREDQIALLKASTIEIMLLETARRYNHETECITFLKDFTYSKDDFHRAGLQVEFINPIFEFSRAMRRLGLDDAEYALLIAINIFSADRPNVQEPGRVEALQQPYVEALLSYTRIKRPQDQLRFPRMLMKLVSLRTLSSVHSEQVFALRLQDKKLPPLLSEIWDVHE
Procedure: Ligand-Binding Test Procedure for Human LXRβ.
Receptor source: E. coli extract from cells expressing biotinylated hLXRβ. Extract was made in a similar buffer as above, but with 50 mM TRIS.
(§1) Washed streptavidin and coated flash plates with wash buffer.
(§2) Diluted receptor extract to give Bmax ˜4000 cpm and add to the wells.
(§3) Wrapped the plates in aluminum foil and stored them at +4° C. over night.
(§4) Made a dilution series in DMSO of the test ligands.
(§5) Made a 5 nM solution of the radioactive tracer in buffer.
(§6) Mixed 250 μl diluted tracer with 5 μl of the test ligand from each concentration of the dilution series.
(§7) Washed the receptor-coated flash plates.
(§8) Added 200 μl per well of the ligand/radiolabel mixture to the receptor-coated flash plates.
(§9) Wrapped the plates in aluminum foil and incubate at +4° C. over night.
(§10) Aspirated wells, and wash the flashed plates. Sealed the plate.
(§11) Measured the remaining radioactivity in the plate.

human LXRα = biological target: T2, human LXRα (Homo sapiens, UniProt Q13133); assay: Ligand-binding test procedure for human LXRα (3H T0901317 competition, flash plates); settings: biotinylated hLXRα, tracer 3H T0901317
T2 construct: biotin (biotinylated; biotinylation tag not described); made in house; host or cells: E. coli
T2 sequence (Q13133 1-447): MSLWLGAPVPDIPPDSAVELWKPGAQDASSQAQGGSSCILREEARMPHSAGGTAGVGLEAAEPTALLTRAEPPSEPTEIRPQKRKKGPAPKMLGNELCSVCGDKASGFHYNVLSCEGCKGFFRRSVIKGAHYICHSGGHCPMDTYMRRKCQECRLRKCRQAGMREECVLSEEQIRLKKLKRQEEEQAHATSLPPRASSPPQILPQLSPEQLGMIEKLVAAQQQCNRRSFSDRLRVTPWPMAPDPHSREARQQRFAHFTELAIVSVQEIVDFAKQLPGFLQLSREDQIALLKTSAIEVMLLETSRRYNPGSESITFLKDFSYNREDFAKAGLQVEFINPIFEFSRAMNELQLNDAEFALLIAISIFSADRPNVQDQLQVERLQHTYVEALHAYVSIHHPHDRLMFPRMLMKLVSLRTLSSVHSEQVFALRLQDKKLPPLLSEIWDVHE
Procedure: Ligand-Binding Test Procedure for Human LXRα.
Receptor source: E. coli extract from cells expressing biotinylated hLXRα. Extract was made in a similar buffer as above, but with 50 mM TRIS.
as §1, §2, §3, §4, §5, §6, §7, §8, §9, §10, §11

| Binding ratio a/b (human LXRβ) | IC50 (human LXRβ) [nM] | IC50 (human LXRα) [nM] | SMILES |
| --- | --- | --- | --- |
| 6 | 538 | 3270 | O=C(O)c1cccc2c(NCc3cccc(-c4ccnc5c(C(F)(F)F)cccc45)c3)cccc12 [Example 48, 5-({3-[8-(trifluoromethyl)quinolin-4-yl]benzyl}amino)-1-naphthoic acid] |
| 6 | 66 | 393 | O=C(O)c1c(NCc2cccc(-c3c(Cc4ccccc4)cnc4c(C(F)(F)F)cccc34)c2)cccc1C(F)(F)F [Example 49, 2-({3-[3-benzyl-8-(trifluoromethyl)quinolin-4-yl]benzyl}amino)-6-(trifluoromethyl)benzoic acid] |
| 6 | 4 | 20 | O=C(O)Cc1ccc(NCc2cccc(-c3c(Cc4ccccc4)cnc4c(C(F)(F)F)cccc34)c2)cc1Cl [Example 50, [4-({3-[3-benzyl-8-(trifluoromethyl)quinolin-4-yl]benzyl}amino)-2-chlorophenyl]acetic acid] |
| 6 | 209 | 1170 | O=C(O)c1cccc(NCc2cccc(-c3c(Cc4ccccc4)cnc4c(C(F)(F)F)cccc34)c2)c1 [Example 51, 3-({3-[3-benzyl-8-(trifluoromethyl)quinolin-4-yl]benzyl}amino)benzoic acid] |
| 6 | 249 | 1380 | O=C(O)c1ccc(F)c(NCc2cccc(-c3c(Cc4ccccc4)cnc4c(C(F)(F)F)cccc34)c2)c1 [Example 52, 3-({3-[3-benzyl-8-(trifluoromethyl)quinolin-4-yl]benzyl}amino)-4-fluorobenzoic acid] |
| 5 | 95 | 510 | Cc1cc(C(=O)O)ccc1NCc1cccc(-c2c(Cc3ccccc3)cnc3c(C(F)(F)F)cccc23)c1 [Example 53, 4-({3-[3-benzyl-8-(trifluoromethyl)quinolin-4-yl]benzyl}amino)-3-methylbenzoic acid] |
| 5 | 62 | 321 | O=C(O)[C@@H]1CCCN1C(=O)c1ccc(COc2cccc(-c3c(Cc4ccccc4)cnc4c(C(F)(F)F)cccc34)c2)cc1 [Example 54, 1-[4-({3-[3-benzyl-8-(trifluoromethyl)quinolin-4-yl]phenoxy}methyl)benzoyl]proline] |
| 5 | 365 | 1810 | COc1cccc(NCc2cccc(-c3c(Cc4ccccc4)cnc4c(C(F)(F)F)cccc34)c2)c1C(=O)O [Example 55, 2-({3-[3-benzyl-8-(trifluoromethyl)quinolin-4-yl]benzyl}amino)-6-methoxybenzoic acid] |
| 5 | 55 | 267 | O=C(O)Cc1cccc2cc(OCc3cccc(-c4c(Cc5ccccc5)cnc5c(C(F)(F)F)cccc45)c3)ccc12 [Example 57, [6-({3-[3-benzyl-8-(trifluoromethyl)quinolin-4-yl]benzyl}oxy)-1-naphthyl]acetic acid] |
| 5 | 25 | 121 | O=C(O)c1c(F)cccc1NCc1cccc(-c2c(Cc3ccccc3)cnc3c(C(F)(F)F)cccc23)c1 [Example 58, 2-({3-[3-benzyl-8-(trifluoromethyl)quinolin-4-yl]benzyl}amino)-6-fluorobenzoic acid] |
| 5 | 98 | 467 | O=C(O)[C@@H]1CCCN1C(=O)c1cccc(COc2cccc(-c3c(Cc4ccccc4)cnc4c(C(F)(F)F)cccc34)c2)c1 [Example 59, 1-[3-({3-[3-benzyl-8-(trifluoromethyl)quinolin-4-yl]phenoxy}methyl)benzoyl]proline] |
| 5 | 38 | 178 | O=C(O)C1CCN(C(=O)c2ccc(COc3cccc(-c4c(Cc5ccccc5)cnc5c(C(F)(F)F)cccc45)c3)cc2)CC1 [Example 60, 1-[4-({3-[3-benzyl-8-(trifluoromethyl)quinolin-4-yl]phenoxy}methyl)benzoyl]piperidine-4-carboxylic acid] |
| 5 | 145 | 681 | O=C(N[C@@H](Cc1c[nH]cn1)C(=O)O)c1ccc(COc2cccc(-c3c(Cc4ccccc4)cnc4c(C(F)(F)F)cccc34)c2)cc1 [Example 61, N-[4-({3-[3-benzyl-8-(trifluoromethyl)quinolin-4-yl]phenoxy}methyl)benzoyl]histidine] |
| 5 | 27 | 125 | Cc1ccc(CC(=O)O)cc1OCc1cccc(-c2c(Cc3ccccc3)cnc3c(C(F)(F)F)cccc23)c1 [Example 62, [3-({3-[3-benzyl-8-(trifluoromethyl)quinolin-4-yl]benzyl}oxy)-4-methylphenyl]acetic acid] |
| 5 | 332 | 1530 | Cn1c(C(=O)O)cc2cc(NCc3cccc(-c4c(Cc5ccccc5)cnc5c(C(F)(F)F)cccc45)c3)ccc21 [Example 63, 5-({3-[3-benzyl-8-(trifluoromethyl)quinolin-4-yl]benzyl}amino)-1-methyl-1H-indole-2-carboxylic acid] |
| 4 | 813 | 3520 | Cc1cc(NCc2cscc2-c2c(Cc3ccccc3)cnc3c(C(F)(F)F)cccc23)c(C)cc1CC(=O)O [Example 64, {4-[({4-[3-benzyl-8-(trifluoromethyl)quinolin-4-yl]-3-thienyl}methyl)amino]-2,5-dimethylphenyl}acetic acid] |
| 4 | 2050 | 8830 | O=C(O)Cc1ccc(NCc2cccc(-c3ccnc4c(C(F)(F)F)cccc34)c2)c2ccccc12 [Example 65, [4-({3-[8-(trifluoromethyl)quinolin-4-yl]benzyl}amino)-1-naphthyl]acetic acid] |
| 4 | 454 | 1950 | C#CCC(C(=O)O)c1cccc2c(OCc3cccc(-c4ccnc5c(C(F)(F)F)cccc45)c3)cccc12 (stereo not drawn) [Example 66, 2-[5-({3-[8-(trifluoromethyl)quinolin-4-yl]benzyl}oxy)-1-naphthyl]pent-4-ynoic acid] |
| 4 | 47 | 203 | O=C(O)c1cc(Cl)c(OCc2cccc(-c3c(Cc4ccccc4)cnc4c(C(F)(F)F)cccc34)c2)c(Cl)c1 [Example 67, 4-({3-[3-benzyl-8-(trifluoromethyl)quinolin-4-yl]benzyl}oxy)-3,5-dichlorobenzoic acid] |
| 4 | 535 | 2290 | O=C(O)Cc1cccc2cc(OCc3cccc(-c4ccnc5c(C(F)(F)F)cccc45)c3)ccc12 [Example 68, [6-({3-[8-(trifluoromethyl)quinolin-4-yl]benzyl}oxy)-1-naphthyl]acetic acid] |
| 4 | 71 | 276 | O=C(O)Cc1ccc2c(OCc3cccc(-c4c(Cc5ccccc5)cnc5c(C(F)(F)F)cccc45)c3)cccc2c1 [Example 69, [5-({3-[3-benzyl-8-(trifluoromethyl)quinolin-4-yl]benzyl}oxy)-2-naphthyl]acetic acid] |
| 4 | 2 | 7 | Cc1cc(NCc2cc(-c3c(Cc4ccccc4)cnc4c(C(F)(F)F)cccc34)cs2)c(C)cc1CC(=O)O [Example 70, {4-[({4-[3-benzyl-8-(trifluoromethyl)quinolin-4-yl]-2-thienyl}methyl)amino]-2,5-dimethylphenyl}acetic acid] |
